# Data as given in paper PMC9134403 (ACS Omega, 2022).
# Target: mushroom tyrosinase (Agaricus bisporus, UniProt C7FF04)
# Assay: Kinetic analysis
# Assay type: biochemical
# Sequence of mushroom tyrosinase (C7FF04 1-392): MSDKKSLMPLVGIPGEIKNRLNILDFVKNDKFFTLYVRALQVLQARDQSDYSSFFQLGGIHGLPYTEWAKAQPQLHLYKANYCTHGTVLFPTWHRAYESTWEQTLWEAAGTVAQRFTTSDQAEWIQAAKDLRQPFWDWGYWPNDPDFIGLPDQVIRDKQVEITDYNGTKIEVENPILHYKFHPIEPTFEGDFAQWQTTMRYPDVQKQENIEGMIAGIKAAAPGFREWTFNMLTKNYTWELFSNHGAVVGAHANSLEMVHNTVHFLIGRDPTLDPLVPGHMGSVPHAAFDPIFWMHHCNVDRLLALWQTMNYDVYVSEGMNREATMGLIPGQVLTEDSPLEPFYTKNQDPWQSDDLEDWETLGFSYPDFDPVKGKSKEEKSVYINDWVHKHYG
smiles,measurement,setting,value
"O=[N+]([O-])c1cccc(-c2oc3cc(Br)cc(Br)c3c(=S)c2O)c1 [2n, 5,7-Dibromo-3-hydroxy-2-(3-nitrophenyl)-4H-chromene-4-thione]",Ki,,1980 nM
same,mode of inhibition,"Lineweaver–Burk plot, Km increased, Vmax constant",competitive
